Source: patent US20050232902A1, “Injectable bioartificial tissue matrix” (priority 2004, published 2005)

Experiments:
[1] = test system: injured myocardium; assay: Transplantation of hES-derived cardiomyocytes pretreated with ascorbic acid into LAD-ligated heart, graft/infarct ratio; type: in vivo, Mice
Source text: The ascorbic acid-treated cells can become large conglomerates of cells in the injected tissue and thereby can restore major portions of a damaged heart muscle when compared with tissue injected with untreated cells. The proportion of host tissue target organ restored by the grafted cultured cells can be evaluated by a measure termed the “graft/infarct ratio”. The graft/infarct ratio is the ratio of the portion of the ‘dead tissue’ area of the target organ that is restored and/or replaced by transplanted cells of bioartificial tissue. The ratio is determined by dividing a measured area of the restored and/or replaced area by the total measured area of ‘dead tissue’. In addition, a measure or growth and/or of viability can be determined by other methods known in the art. Such methods include, staining of tissue slices with trypan blue to determine extent of dye exclusion, determining nucleic acid uptake of tritiated thymidine into proliferating cells, and staining of tissue slices with toluidin blue to determine extent of dye uptake.
Human ES (hES) cell lines, H1 and H7 (Mummery et al., (2002) supra; Hescheler, B. K. et al. (1997) Cardiovasc. Res. 36:149-162) were initially maintained on feeders in ES medium containing 80% knockout Dulbecco's modified Eagle's medium (KO-DMEM) (Invitrogen, Carlsbad Calif.), 1 mM L-glutamine, 0.1 mM β-mercaptoethanol, 1% nonessential amino acids stock (Invitrogen), 20% Serum Replacement (Invitrogen, Carlsbad Calif.) and 4 ng/ml hbFGF (Invitrogen). The cells were later maintained using feeder-free conditions, herein described. Briefly, feeder-free cultures were passaged by incubation in 200 units/ml collagenase IV for 5-10 minutes at 37° C., dissociated and then seeded onto MATRIGEL-coated plates and maintained in conditioned medium (CM) prepared from primary mouse embryonic fibroblast cultures.
Confluent H7 hES cell cultures were incubated with 0.5 mM EDTA in phosphate-buffered saline (PBS) at 37° C. for 8 min, dissociated, resuspended in CM and replated onto MATRIGEL-coated plates at ˜1×10^6 cells/cm^2. […]

[2] = test system: transplant cell viability and colonization; assay: Adjuvants compared with ascorbic acid in transplantable cell cultures (Example VI); type: in vivo; conditions: treatment of cells prior to transplantation into a target organ
Source text: In separate experiments, treatment with other adjuvants or treatments were compared with treatment with ascorbic acid. [formula]

[3] = test system: chondrocytes; conditions: cited from earlier work

Structure (SMILES): O=C1O[C@H]([C@@H](O)CO)C(O)=C1O [ascorbic acid]
- Increase of graft/infarct ratio compared with untreated cells ([1]; 24 hours (treated) vs six hours (untreated, R=0.09:1.0) after transplantation): 4.6 fold
- Effects on colonization and viability of pretreated cells at subsequent time points ([1]; 7 days, 14 days, and 28 days following transplantation): sustained
- Area of the tissue populated by transplanted cells ([1]; cells pretreated 24 hrs with 1 mM ascorbic acid, 24 hours following transplantation, total damaged area 536,594 μm^2, FIG. 5): 215,525 μm^2
- Increase in transplant cell viability and colonization [2]: at least 47 fold
- Viable cells in the gelled culture ([3]; 2×10^5 cells starting number, 50 μg/ml ascorbic acid, three weeks in vitro): approximately 12×10^5 cells
- Increase in cell viability ([3]; chondrocytes incubated three weeks in vitro vs absence of ascorbic acid): approximately ten-fold
- Viable cells after three weeks incubation ([3]; starting number 2×10^6 cells): 2.6×10^6 cells
